Broadly, the solubility is the dissolved amount per volume that the medium holds.

≈ marks a conversion by molar mass, not a printed value. Like-named read-outs stand apart in the source and are kept apart here.

Series [1] can be described thus: Content of glyburide and arginine dissolved in the filtered supernatant, Example 2. The class given is physicochemical. The following applies: 8mg glyburide + 8mg arginine in 10mL water, supersaturated solution at 60℃, 0.45um filter.
For series [2] the following is noted: 25℃; cited from earlier work.
For series [3] the following is noted: 100mg glyburide (form A) + 36mg arginine in 10mL water, room temperature, stirred overnight, 0.45um filter.

As to `COc1ccc(Cl)cc1C(=O)NCCc1ccc(S(=O)(=O)NC(=O)NC2CCCCC2)cc1` [格列本脲, N-[2-[4-[[[(环己氨基)羰基]氨基]磺酰基]苯基]乙基]-2-甲氧基-5-氯苯甲酰胺], the solubility in series [1] came to 800 µg/mL. Besides, the solubility in water in series [2] is 100 µg/mL (≈ 202 µM).
Regarding `N=C(N)NCCCC(N)C(=O)O` (stereo not shown) [精氨酸], the results for the “arginine content in supernatant” value in series [1] and in series [3] were 0.8 mg/mL and 3.50 mg/mL, respectively.

Source of the values: patent CN113214121A, “一种格列本脲-精氨酸共无定型” (Jiangsu Hengrui Medicine Co Ltd, priority 2020, dated 2021).
